Data on three compounds can be found in PMC11324770, “A novel in vitro high-content imaging assay for the prediction of drug-induced lung toxicity” (Archives of Toxicology, 2024).

One data set relates to occludin in A549 cells. Kind of data set: High-content imaging of junctional occludin staining in A549 cells. It is filed as cell-based. Particulars: for area of junctional staining present at the cell membrane compared to DMSO controls: A549, 24 h, concentration-dependent, Fig. 2 shows TNFα/TGFβ as a combination. How it is done: A549 (ATCC), an alveolar epithelial cell line, and CALU-3 (ATCC), an epithelial cell line, were cultured in Dulbecco’s modified Eagle’s medium (DMEM) supplemented with 10% foetal bovine serum (FBS). 16HBE bronchial epithelial cells, kindly provided by Carl Staples (University of Southampton), were cultured in DMEM supplemented with 10% FBS and 1% non-essential amino acids). All culture media materials were purchased from Thermo Fisher Scientific. For imaging experiments, cells were seeded at 10,000 cells per well in 96-well CellCarrier imaging plates (Perkin Elmer) and cultured for 72 h to allow tight junction formation. All experiments were carried out between passages 3 and 15.
All tested compounds were synthesized internally and provided in 100% DMSO. Compounds were diluted in appropriate media to a 9-point concentration range from 100 µM down to 15 nM with a final concentration of 1% DMSO. Cigarette smoke extract (CSE) was produced by passing smoke from 5 University of Kentucky research cigarettes with filters removed through PBS with an air pump at a rate 0.07 L/min. CSE was diluted in appropriate media to a concentration range of 12% to 0.01%. TNF-α and TGF-β (Thermo Fisher Scientific) were diluted in appropriate media to a concentration range of 50 ng/ml to 0.02 ng/ml. All treatments were for 24 h and terminated by removing media and fixing with 4% paraformaldehyde (PFA). Vehicle (1% DMSO) was included for each plate and all treatments were carried out in duplicate on each plate. All experiments were independently repeated at least 3 times.
Following treatment, cells were washed twice in PBS and fixed in 4% PFA for 20 min at room temperature and permeabilized using 0.5% Triton-X for 15 min at room temperature. Cells were then blocked using 5% goat serum in PBS at room temperature for 1 h. Primary antibodies were applied as per optimized conditions based on manufacturers recommended dilutions overnight at 4 °C. Cells were washed twice in PBS prior to application of secondary antibodies at a dilution of 1:5000 for 1 h at room temperature. Cells were washed twice with PBS and subsequently stained with a mixture of Hoechst and Cell Mask Deep Red at 1:1000 in PBS. Finally, cells were washed twice in PBS and either stored at 4 °C or imaged immediately. Plates were imaged using a MolecularDevices IXC. […] Cell viability was assessed through direct counts of nuclei.
Analysis modules were written using the custom module editor of MetaXpress version 6.5.4.532. […] This thickened outline mask was then applied to the cell mask image and the area of staining was quantified. […] To quantify the amount of occludin staining at the membrane, the final step of the module overlaid the thickened membrane mask with the thickened junction mask. […]

In a further data set the test system is respiratory tract. Also on record: method as in printed. Particulars: ref not given, cited from earlier work.

Regarding `[Cl][Cd][Cl]` [Cadmium chloride], the “area of junctional staining present at the cell membrane compared to DMSO controls” value (from here on “area … compared to DMSO controls”) with occludin in A549 cells is given as “significant decrease”. In addition, half-maximal inhibition in the data set on occludin in A549 cells (area of occludin staining normalized to cell number and DMSO, 24 h, 9-point range up to 100 µM, NA = no IC50 curve could be established) (IC50) was put at 3.7 µM. For the same compound, in the data set on respiratory tract (earlier non-clinical or clinical findings), the “Comment (respiratory findings)” value is “Pneumonitis and fibrosis”. The Respiratory safety risk entry in the data set on respiratory tract (earlier pivotal toxicology studies in pre-clinical species or clinic) is reported as “Yes”.
For the compound TNF-α, the “area … compared to DMSO controls” value with occludin in A549 cells is on record as “significant decrease”.
Take TGF-β: the “area … compared to DMSO controls” value in the data set on occludin in A549 cells is “significant decrease”.
